Reference: article PMC12523843, “Kuwanon A Targeted YWHAB in Hepatocellular Carcinoma Cells to Inhibit the Raf/MEK/ERK Signaling Pathway” (Cells, 2025)
Where two headings read alike, the source gives them in different places.

Experiments:
[1] = system: MHCC97H and SMMC 7721 cells; assay: CCK8 cell viability screen of mulberry active substances; format: cell-based, human; conditions: 10 μM, 48 h
Procedure: The CCK8 assay is used to investigate the effect of compounds on cell viability by measuring the amount of formazan dye. Firstly, 8000 cells were inoculated into each well of the 96-well plate with three replicates per condition. At the same time, add the corresponding mulberry active substances. After 48 h of incubation, 20 μL of the Cell Counting Kit-8 (CCK8) reagent (Beyotime, Shanghai, China) was added to each well. After being cultured under 37 °C and 5% carbon dioxide for 2–3 h, the absorbance was measured at 450 nm.

MHCC97 H cells [2] = assay: MTT IC50 determination in MHCC97 H; format: cell-based, human; conditions: MTT method, read-out: IC50 in MHCC97 H (screen)
Procedure: (§1) Cell viability was assessed using MTT experiments. Cells, together with KA, were seeded into 96-well plates at a density of 2000 cells per well with three replicates per condition. DMSO was used as a control. At designated time points, 20 μL of MTT (Sigma, St. Louis, MO, USA) solution was added to each well and incubated for 3 h. After removing the culture medium, 200 μL of DMSO was added to dissolve the formazan crystals. The absorbance was then measured using a microplate reader at a wavelength of 560 nm.

MHCC97 H cells [3] = assay: Transwell migration screen of selected compounds; format: cell-based, human; conditions: compounds at an IC50 concentration
Procedure: (§2) The Transwell assay measured the migration and invasion of cells by calculating the number of cells that passed through the material. Prior to the Transwell migration assay, cells were serum-starved in FBS-free culture medium for 24 h. The cells were then detached using trypsin, washed 1–2 times with PBS, and resuspended in DMEM. Approximately 50,000–100,000 cells were seeded into the upper chamber of the Transwell insert. The lower chamber was filled with 600 μL of complete medium containing the test compound. The Transwell system was incubated for 12 h under standard culture conditions (37 °C, 5% CO2). After incubation, the migrated cells on the lower membrane surface were fixed with 4% paraformaldehyde (PFA) and stained with 0.1% crystal violet. Non-migrated cells remaining in the upper chamber were carefully removed with a cotton swab. Finally, the stained cells were visualized under a microscope. If matrix gel was needed, it should be added according to the instructions (Beyotime, Shanghai, China) before the cells were seeded.

[4] = system: HCC cells (MHCC97 H and SMMC 7721); assay: Transwell migration (without Matrix-Gel) and invasion (with Matrix-Gel) assay; format: cell-based, human; conditions: Sorafenib 10 μM alone or 10 μM KA and 10 μM Sorafenib, 48 h
Procedure: as §2, with “The Transwell system was incubated for 12 h under standard culture conditions (37 °C, 5% CO2).” left out

MHCC97 H cells [5] = system: MHCC97 H cells; parameters: method as in MCE website (https://www.medchemexpress.cn/); conditions: ref MCE website (https://www.medchemexpress.cn/); read-out: IC50 of Sorafenib in MHCC97 H; cited from earlier work
SMMC 7721 cells = system: SMMC 7721 cells; parameters: method as in MCE website (https://www.medchemexpress.cn/); conditions: ref MCE website (https://www.medchemexpress.cn/); read-out: IC50 of Sorafenib in SMMC 7721; cited from earlier work
[6] = system: normal human liver cells (L-O2); assay: MTT IC50 determination in normal liver cells; format: cell-based; conditions: L-O2, MTT method
Procedure: as §1

YWHAB (tyrosine …) = target: T1, YWHAB (tyrosine 3-monooxygenase/tryptophan 5-monooxygenase activation protein beta), endogenous in HCC cells (human (endogenous in MHCC97 H and SMMC 7721)), P31946; assay: native gel or EMSA; Blue native PAGE of cell lysates (IP cell lysis buffer, Coomassie G-250), then immunoblot; cells treated with KA or DMSO (less dimer with KA); conditions: remark: other sources report otherwise
T1 chain: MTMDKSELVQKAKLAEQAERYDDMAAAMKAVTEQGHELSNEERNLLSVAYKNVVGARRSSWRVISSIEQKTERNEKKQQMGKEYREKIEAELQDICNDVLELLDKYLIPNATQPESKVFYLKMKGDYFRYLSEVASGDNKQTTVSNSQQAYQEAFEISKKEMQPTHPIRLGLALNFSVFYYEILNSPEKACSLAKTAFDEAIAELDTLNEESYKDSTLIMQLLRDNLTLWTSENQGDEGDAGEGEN

FLAG-YWHAB, P31946 = target: T2, FLAG-YWHAB, P31946; assay: as above; conditions: remark: other sources report otherwise
T2 chain: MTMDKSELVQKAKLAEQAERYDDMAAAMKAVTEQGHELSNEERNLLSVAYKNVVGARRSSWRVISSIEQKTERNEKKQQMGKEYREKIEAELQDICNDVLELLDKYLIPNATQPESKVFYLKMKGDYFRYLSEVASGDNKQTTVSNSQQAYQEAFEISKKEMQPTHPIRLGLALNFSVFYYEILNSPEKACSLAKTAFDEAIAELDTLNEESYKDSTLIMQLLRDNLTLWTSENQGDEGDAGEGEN

With sanggenol L the “viability of HCC cells (CCK8)” value [1] was “significantly inhibited the viability of HCC cells”, the IC50 (MHCC97 H cells [2]) was < 20 µM and the “migration of MHCC97 H (Transwell)” value (MHCC97 H cells [3]) was “significantly inhibited the migration of MHCC97 H”.

With CC(C)(O)CCc1c(-c2ccc(O)cc2O)oc2c3c(cc(O)c2c1=O)OC(C)(C)C=C3 [Morusinol] the IC50 (MHCC97 H cells [2]; Homo sapiens, MHCC97H) was < 20 µM.

In the case of CNC(=O)c1cc(Oc2ccc(NC(=O)Nc3ccc(Cl)c(C(F)(F)F)c3)cc2)ccn1 [Sorafenib], the “HCC cell migration/invasion (Transwell, polycarbonate membrane or Matrigel)” value [4] is given as “no significant effect”, the IC50 (MHCC97 H cells [5]) is given as ~10 µM and the IC50 (SMMC 7721 cells) is given as ~10 µM.

With Cc1cc2c3c(c1)-c1c(O)cc(-c4cc5ccc(O)cc5o4)cc1OC3(c1ccc(O)cc1O)Oc1cc(O)ccc1-2 (centres unmarked) [Albanol B, albanol B] the “viability of HCC cells (CCK8)” value [1] was “significantly inhibited the viability of HCC cells”, the IC50 (MHCC97 H cells [2]) was < 20 µM and the “IC50 in normal liver cells” value [6] was “relatively low”. For the same molecule, the “migration of MHCC97 H (Transwell)” value (MHCC97 H cells [3]) was “significantly inhibited the migration of MHCC97 H”.

For CC(C)=CCc1c(-c2ccc(O)cc2O)oc2c3c(cc(O)c2c1=O)OC(C)(C)C=C3 [Morusin], the IC50 (MHCC97 H cells [2]; Homo sapiens, MHCC97H) was < 20 µM.

For CC(C)=CCc1c(-c2ccc(O)cc2O)oc2c(CC=C(C)C)c(O)cc(O)c2c1=O [Mulberrin], the IC50 (MHCC97 H cells [2]) was < 20 µM.

With CC(C)=CCc1c(-c2ccc(O)cc2O)oc2c([C@H]3C=C(C)C[C@@H](c4ccc(O)cc4O)[C@@H]3C(=O)c3ccc(O)cc3O)c(O)cc(O)c2c1=O [Kuwanon G, kuwanon G] the IC50 (MHCC97 H cells [2]) was < 20 µM.

In the case of sanggenone D, the IC50 (MHCC97 H cells [2]) is reported as < 20 µM.

With CC(C)=CCC/C(C)=C/Cc1c(O)ccc(-c2oc3cc(O)cc(O)c3c(=O)c2CC=C(C)C)c1O [L8-06, 3'-geranyl-3-prenyl-2',4',5,7-tetrahydroxyflavone] the IC50 (MHCC97 H cells [2]; Homo sapiens, MHCC97H) was < 20 µM.

In the case of sanggenone C, the “viability of HCC cells (CCK8)” value [1] is reported as “significantly inhibited the viability of HCC cells” and the IC50 (MHCC97 H cells [2]) is reported as < 20 µM.

B1: YWHAB (tyrosine 3-monooxygenase/tryptophan 5-monooxygenase activation protein beta), endogenous in HCC cells, P31946 1-246 (natural protein)
chain: MTMDKSELVQKAKLAEQAERYDDMAAAMKAVTEQGHELSNEERNLLSVAYKNVVGARRSSWRVISSIEQKTERNEKKQQMGKEYREKIEAELQDICNDVLELLDKYLIPNATQPESKVFYLKMKGDYFRYLSEVASGDNKQTTVSNSQQAYQEAFEISKKEMQPTHPIRLGLALNFSVFYYEILNSPEKACSLAKTAFDEAIAELDTLNEESYKDSTLIMQLLRDNLTLWTSENQGDEGDAGEGEN
For B1, the stoichiometry N (YWHAB (tyrosine …)) was 2.

B2: FLAG-YWHAB, P31946 1-246 (natural protein)
chain: MTMDKSELVQKAKLAEQAERYDDMAAAMKAVTEQGHELSNEERNLLSVAYKNVVGARRSSWRVISSIEQKTERNEKKQQMGKEYREKIEAELQDICNDVLELLDKYLIPNATQPESKVFYLKMKGDYFRYLSEVASGDNKQTTVSNSQQAYQEAFEISKKEMQPTHPIRLGLALNFSVFYYEILNSPEKACSLAKTAFDEAIAELDTLNEESYKDSTLIMQLLRDNLTLWTSENQGDEGDAGEGEN
B2 gave a stoichiometry N (FLAG-YWHAB, P31946) of 2.
